Consider 4 molecules from patent US20090281152A1, “Indole Compounds Having Affinity to the EP1 Receptor” (priority 2006, published 2009).

Test [1] concerns the target T1, human EP3 receptor (Homo sapiens, UniProt P43115).
T1 construct: expressed in transfected cells; host or cells: CHO-K1 cells, pCIN vector
T1 sequence (P43115 1-390): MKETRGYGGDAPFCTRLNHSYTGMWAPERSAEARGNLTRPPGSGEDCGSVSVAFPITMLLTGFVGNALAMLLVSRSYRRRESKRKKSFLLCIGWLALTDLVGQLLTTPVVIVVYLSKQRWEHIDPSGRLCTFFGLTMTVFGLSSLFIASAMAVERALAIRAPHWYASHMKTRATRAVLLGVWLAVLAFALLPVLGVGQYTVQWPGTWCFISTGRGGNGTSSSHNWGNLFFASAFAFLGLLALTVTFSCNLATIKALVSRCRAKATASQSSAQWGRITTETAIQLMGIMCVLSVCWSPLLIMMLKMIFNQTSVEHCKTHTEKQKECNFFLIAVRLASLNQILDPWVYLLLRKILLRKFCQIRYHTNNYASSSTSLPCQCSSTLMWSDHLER
As to the kind of experiment: human EP3 calcium mobilisation assay (FLIPR, CHO-K1 cells). The note with it: antagonism of PGE2-induced calcium mobilisation, averages of a number of experiments, read-out: functional pKi (converted). It counts as cell-based. On the procedure: Briefly, the antagonist properties of compounds are assessed by their ability to inhibit the mobilisation of intracellular calcium ([Ca^2+]i) in response to activation of EP1 or EP3 receptors by the natural agonist hormone prostaglandin E2 (PGE2). Increasing concentrations of antagonist reduce the amount of calcium that a given concentration of PGE2 can mobilise. The net effect is to displace the PGE2 concentration-effect curve to higher concentrations of PGE2. The amount of calcium produced is assessed using a calcium-sensitive fluorescent dye such as Fluo-4, AM and a suitable instrument such as a Fluorimetric Imaging Plate Reader (FLIPR). Increasing amounts of [Ca^2+]i produced by receptor activation increase the amount of fluorescence produced by the dye and give rise to an increasing signal. The signal may be detected using the FLIPR instrument and the data generated may be analysed with suitable curve-fitting software.
The human EP1 or EP3 calcium mobilisation assay (hereafter referred to as ‘the calcium assay’) utilises Chinese hamster ovary-K1 (CHO-K1) cells into which a stable (pCIN; BioTechniques 20 (1996): 102-110) vector containing either EP1 or EP3 cDNA has previously been transfected. Cells are cultured in suitable flasks containing culture medium such as DMEM:F-12 supplemented with 10% v/v foetal calf serum, 2 mM L-glutamine, 0.25 mg/ml geneticin, 100 μM flurbiprofen and 10 μg/ml puromycin.
For assay, cells are harvested using a proprietary reagent that dislodges cells such as Versene. Cells are re-suspended in a suitable quantity of fresh culture media for introduction into a 384-well plate. Following incubation for 24 hours at 37° C. the culture media is replaced with a medium containing Fluo-4 and the detergent pluronic acid, and a further incubation takes place. Concentrations of compounds are then added to the plate in order to construct concentration-effect curves. This may be performed on the FLIPR in order to assess the agonist properties of the compounds. […]
The data so generated may be analysed by means of a computerised curve-fitting routine. […]
In general terms: A change in cytosolic calcium serves as a functional read-out for many receptors and channels.

Test [2] relates to rodent model of post-operative pain. The note with it: Anesthesia and Analgesia 2001, 92, 233-238; cited from earlier work.
The subject of test [3] is rat model of chronic constriction injury. The note with it: Anesthesia and Analgesia 2001, 93, 1012-7; cited from earlier work.

With `Cc1ccc2c(c1)c(-c1nc(C(=O)NS(=O)(=O)c3ccccc3)co1)cn2CC(C)C` [Example 10, 2-[5-Methyl-1-(2-methylpropyl)-1H-indol-3-yl]-N-(phenylsulfonyl)-1,3-oxazole-4-carboxamide], in test [1], the Ki was above 0.316 µM.

As to `Cc1cc(Cl)ccc1S(=O)(=O)NC[C@H]1C2CCC(CC2)[C@@H]1/C=C\CCCC(=O)O` [ONO-8711], the mechanical hyperalgesia result in test [2] is “inhibits mechanical hyperalgesia”. Also, the hyperalgesia and allodynia result in test [3] was “reduces hyperalgesia and allodynia”.

Regarding `CC(C)Cn1cc(-c2nc(C(=O)O)cs2)c2cc(Cl)ccc21` [Example 7, 2-[5-Chloro-1-(2-methylpropyl)-1H-indol-3-yl]-1,3-thiazole-4-carboxylic acid], the Ki in test [1] is at least 1 µM.

On to `CC(C)Cn1cc(-c2nc(C(=O)O)co2)c2cc(Cl)ccc21` [Example 8, 2-[5-Chloro-1-(2-methylpropyl)-1H-indol-3-yl]-1,3-oxazole-4-carboxylic acid], for which the Ki in test [1] was at least 1 µM.
